According to ChEMBL document CHEMBL4406802, “Human disorders associated with inflammation and the evolving role of natural products to overcome” (Eur J Med Chem, 2019):

test system: BV-2; assay: Antiinflammatory activity in mouse BV2 cells assessed as inhibition of LPS-induced nitric oxide production at 10 uM relative to control; format: functional; conditions: not given

Compound | inhibition at 10 µM [%]
COc1ccc(C(O)C2COC(=O)C2Cc2ccc(OC3O[C@H](CO)[C@@H](O)[C@H](O)[C@H]3O)c(OC)c2)cc1OC (some centres not stated) | 87.8
COc1cc(/C=C/C(=O)CC(=O)/C=C/c2ccc(O)c(OC)c2)ccc1O [CURCUMIN] | 53
COc1cc(CC2C(=O)OCC2Cc2cc(OC)c(O)c(C(CO)CO)c2)ccc1OC1O[C@H](CO)[C@@H](O)[C@H](O)[C@H]1O (some centres not stated) | 71.6
COc1ccc(CC2COC(=O)C2Cc2cc(C(=O)O)oc(=O)c2)cc1OC (configuration not stated) | 75.5
COc1cc(CC2C(=O)OCC2C(O)c2ccc(OC)c(OC)c2)ccc1O (configuration not stated) | 63.3

test system: RAW264.7; assay: Cytotoxicity against mouse RAW264.7 cells assessed as cell viability after 24 hrs by MTT assay relative to control; format: functional; conditions: not given

Compound | Activity [%]
C[C@@H]1O[C@@H](O[C@H]2[C@H](O[C@H]3[C@H](O[C@H]4CC[C@@]5(C)[C@@H](CC[C@]6(C)[C@@H]5CC=C5[C@@H]7C[C@]8(C)C[C@@H](OC8=O)[C@]7(C)CC[C@]56C)[C@@]4(C)CO)O[C@H](C(=O)O)[C@@H](O)[C@@H]3O)O[C@H](CO)[C@H](O)[C@@H]2OC=O)[C@H](O)[C@H](O)[C@H]1O | 95.2
C[C@@H]1[C@H](O)CC[C@]2(C(=O)O)CC[C@]3(C)C(CC[C@@H]4[C@@]5(C)CC[C@H](O[C@@H]6O[C@H](C(=O)O)[C@@H](O)[C@H](O)[C@H]6O[C@@H]6O[C@H](CO)[C@H](O)[C@H](O)[C@H]6O[C@@H]6O[C@@H](C)[C@H](O)[C@@H](O)[C@H]6O)C(C)(C)[C@@H]5CC[C@]43C)[C@H]12 (some centres not stated) | 96.8
C[C@@H]1O[C@@H](O[C@H]2[C@H](O[C@H]3[C@H](O[C@H]4CC[C@@]5(C)[C@@H](CC[C@]6(C)[C@@H]5CC=C5[C@@H]7C[C@]8(C)C[C@@H](OC8=O)[C@]7(C)CC[C@]56C)[C@@]4(C)CO)O[C@H](C(=O)O)[C@@H](O)[C@@H]3O)OC[C@@H](O)[C@@H]2O)[C@H](O)[C@H](O)[C@H]1O | 97.6

biological target: T1, Prostaglandin G/H synthase 2 (Homo sapiens, UniProt P35354); assay: Inhibition of COX2 (unknown origin); conditions: not given
T1 sequence (P35354 whole entry): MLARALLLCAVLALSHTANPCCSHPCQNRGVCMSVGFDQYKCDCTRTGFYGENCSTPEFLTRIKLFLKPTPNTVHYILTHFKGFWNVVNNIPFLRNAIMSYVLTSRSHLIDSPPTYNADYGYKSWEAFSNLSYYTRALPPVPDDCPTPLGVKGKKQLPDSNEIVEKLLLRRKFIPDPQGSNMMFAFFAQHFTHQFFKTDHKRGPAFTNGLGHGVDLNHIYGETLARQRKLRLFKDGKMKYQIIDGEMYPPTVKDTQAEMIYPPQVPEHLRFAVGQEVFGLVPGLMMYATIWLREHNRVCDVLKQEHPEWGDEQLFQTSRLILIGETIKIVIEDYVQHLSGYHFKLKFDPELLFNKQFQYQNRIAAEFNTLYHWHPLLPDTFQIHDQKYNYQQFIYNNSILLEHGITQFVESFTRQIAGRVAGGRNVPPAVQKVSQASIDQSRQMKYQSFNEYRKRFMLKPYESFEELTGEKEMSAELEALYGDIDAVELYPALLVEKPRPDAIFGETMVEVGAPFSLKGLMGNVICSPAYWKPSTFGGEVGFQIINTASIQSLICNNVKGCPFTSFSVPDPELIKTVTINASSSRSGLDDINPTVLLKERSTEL

IC50 [µM] | Compound
4.5 | O=C(O[C@@H]1[C@@H](c2c(O)cc(O)c3c2O[C@H](c2cc(O)c(O)c(O)c2)[C@H](OC(=O)c2cc(O)c(O)c(O)c2)C3)c2c(O)cc(O)c([C@H]3c4c(O)cc(O)cc4O[C@H](c4cc(O)c(O)c(O)c4)[C@@H]3OC(=O)c3cc(O)c(O)c(O)c3)c2O[C@@H]1c1cc(O)c(O)c(O)c1)c1cc(O)c(O)c(O)c1
460 | CC(C)[C@@H]1CC[C@]2(C)[C@@H]3C(C=C4[C@@H]5CC(C)(C)C(=O)C[C@]5(C)CC[C@]42C)OC(=O)CC(O)[C@]31C (some centres not stated)
650 | CC(C)[C@@H]1CC[C@]2(C)[C@@H]3C(C=C4[C@@H]5CC(C)(C)CC[C@]5(C)CC[C@]42C)OC(=O)CC[C@]31C (some centres not stated)
540 | C=C(C)[C@@H]1CC[C@]2(C)CC[C@]3(C)[C@H](CCC4[C@@]5(C)[C@H](O)C[C@H](OC(C)=O)C(C)(C)[C@@H]5CC[C@]43C)[C@@H]12 (some centres not stated)
450 | C=C(C)[C@@H]1CC[C@]2(C)CC[C@]3(C)[C@H](CCC4[C@@]5(C)[C@H](O)C[C@H](O)C(C)(C)[C@@H]5CC[C@]43C)[C@@H]12 (some centres not stated)

Compound | IC50 [µM]
COOC[C@@]1(C)CC[C@]2(C)CC[C@]3(C)[C@@H]4CC(=O)c5cc(OC)c(O)cc5[C@]4(C)CC[C@@]3(C)C2C1 (some centres not stated) | 660

test system: RAW264.7; assay: Antiinflammatory activity in mouse RAW264.7 cells assessed as inhibition of LPS-induced nitric oxide production at […] after 24 hrs by Griess reagent based assay relative to control; format: functional; parameters: dose or concentration left out as unconfirmed; conditions: RAW264.7, 24 h

Compound | inhibition [%]
COc1cc(C)c2c(=O)c3c(O)cc(OC)cc3oc2c1 [LICHEXANTHONE] | 32
O=c1c2ccc(O)c(O)c2oc2cc(O)cc(O)c12 | 78.9
CC(C)=CC[C@@H]1C[C@]23C[C@@H](CC=C(C)C)C(C)(C)[C@](CC=C(C)C)(C(=O)C(C(=O)c4ccc(O)c(O)c4)=C2OC1(C)C)C3=O | 92.9
CC(C)=CCOc1cc(O)c2c(=O)c3cc(OCC=C(C)C)c(O)cc3oc2c1 | 84.2
CC(C)=CCOc1cc(O)c2c(=O)c3cc(OCC=C(C)C)c(OCC=C(C)C)cc3oc2c1 | 81.4

test system: RAW264.7; assay: Antiinflammatory activity in mouse RAW264.7 cells assessed as inhibition of LPS-induced nitric oxide production after 24 hrs by Griess reagent based assay relative to control; format: functional, cell-based; conditions: RAW264.7, 24 h

IC50 [µM] | Compound
16.1 | C[C@@H]1O[C@@H](O[C@H]2[C@H](O[C@H]3[C@H](O[C@H]4CC[C@@]5(C)[C@@H](CC[C@]6(C)[C@@H]5CC=C5[C@@H]7C[C@]8(C)C[C@@H](OC8=O)[C@]7(C)CC[C@]56C)[C@@]4(C)CO)O[C@H](C(=O)O)[C@@H](O)[C@@H]3O)O[C@H](CO)[C@H](O)[C@@H]2OC=O)[C@H](O)[C@H](O)[C@H]1O
13.2 | C[C@@H]1[C@H](O)CC[C@]2(C(=O)O)CC[C@]3(C)C(CC[C@@H]4[C@@]5(C)CC[C@H](O[C@@H]6O[C@H](C(=O)O)[C@@H](O)[C@H](O)[C@H]6O[C@@H]6O[C@H](CO)[C@H](O)[C@H](O)[C@H]6O[C@@H]6O[C@@H](C)[C@H](O)[C@@H](O)[C@H]6O)C(C)(C)[C@@H]5CC[C@]43C)[C@H]12 (some centres not stated)
18.8 | C[C@@H]1O[C@@H](O[C@H]2[C@H](O[C@H]3[C@H](O[C@H]4CC[C@@]5(C)[C@@H](CC[C@]6(C)[C@@H]5CC=C5[C@@H]7C[C@]8(C)C[C@@H](OC8=O)[C@]7(C)CC[C@]56C)[C@@]4(C)CO)O[C@H](C(=O)O)[C@@H](O)[C@@H]3O)OC[C@@H](O)[C@@H]2O)[C@H](O)[C@H](O)[C@H]1O
